Measured values: US12655436B2, “Import of unnatural or modified nucleoside triphosphates into cells via nucleic acid triphosphate transporters” (The Scripps Research Institute, priority 2014, dated 2026)

Key:
Polymerase = conditions: 10, 5, 2 or 1 μM, 30° C., 20 nM DNA
Description: Polymerase (15 μg/ml) is incubated at 30° C. in buffer (50 mM TRIS pH 7.5, 0.05% Tween 20, 6 mM MgSO4, 1 mM EDTA, 50 mM NaCl) with 20 nM DNA. […] Tubes are incubated at 30° C. and aliquots are taken at 0.33, 0.66, 1, 2, 5, and 15 mins from the 4 reaction tubes for quenching and 15% urea acrylamide gel analysis. 1 mM dNTPs are added to the remaining reaction tubes and after a further 10 mins an aliquot is taken for gel analysis (chase).

actively growing E. coli = conditions: for degradation of triphosphate in the presence of actively growing E. coli: preliminary characterization, HPLC and MALDI
Description: dNaMTP or d5SICSTP (10 mM each) were added to media to a final concentration of 0.25 mM. Cells were incubated with the substrate with shaking at 37° C. for 30 min and then pelleted (8,000 rfu for 5 min, 4° C.). An aliquot of the media fraction (40 μl) was mixed with acetonitrile (80 μl) to precipitate proteins, and then incubated at RT for 30 min. Samples were either analyzed immediately by HPLC or stored at −80° C. until analysis. Analysis began with centrifugation (12,000 rfu for 10 min, RT), then the pellet was discarded, and the supernatant was reduced to ˜20 μl, resuspended in 95% 0.1 M TEAB, pH 7.5; 5% acetonitrile, to a final volume of 50 μl, and analyzed by HPLC.
Samples were applied to a LC column (3 μm C18 300 Å, 250×4.6 mm) and subjected to a linear gradient of 0-40% with 20% 0.1 M TEAB, pH 7.5; 80% acetonitrile over 40 min at a flow rate of 1 ml/min.
Injection series included two extra control samples containing 5 nmol of dNaMTP or d5SICSTP. […] After peak integration, the ratio of the unknown peak to the control peak adjusted for the loss from the extraction step (62% and 70% loss for dNaM and d5SICS, respectively), provided a measure of the amount of each of the moieties in a sample. To determine the relative concentrations of unnatural nucleotide inside a cell, the amount of imported unnatural nucleotide was then divided by the volume of cells, which was calculated from the volume of a single E. coli cell of (1 μm^3) multiplied by the number of cells in each culture (OD600 of 1.0 equal to 1×10^9 cells per ml). An RpNTT2 sample was used as a negative control and its signal was subtracted to account for any incomplete washing of nucleotide species from the media.

PtNTT2 [1] = assay: Uptake of d5SICSTP or dNaMTP into E. coli C41(DE3) expressing PtNTT2, media and cytoplasmic fractions by HPLC; format: cell-based, Escherichia coli C41(DE3) expressing PtNTT2
Description: (§1) E. coli C41(DE3) freshly transformed with pCDF-1b-PtNTT2 was grown in 2×YT with streptomycin overnight, then diluted (1:100) into fresh 2×YT medium (1 ml of culture per uptake with [α-^32P]-dATP; 2 ml of culture per uptake with d5SICSTP or dNaMTP) supplemented with 50 mM potassium phosphate (KPi) and streptomycin. […] Cells were grown to an OD600 of ˜0.6 and expression was induced by the addition of IPTG (1 mM). The culture was allowed to grow for another hour (final OD600 ˜1.2) and then assayed directly for uptake as described below using a method adapted from Haferkamp, et al.
To analyze the intracellular dephosphorylation of unnatural nucleoside triphosphates, cell pellets were subjected to 3×100 μl washes of ice cold KPi (50 mM). Pellets were then resuspended in 250 μl of ice cold KPi (50 mM) and lysed with 250 μl of Lysis buffer L7 of the PureLink Quick Plasmid DNA Miniprep Kit (200 mM NaOH, 1% w/v SDS), after which the resulting solution was incubated at RT for 5 min. Precipitation buffer N4 (350 μl, 3.1 M potassium acetate, pH 5.5) was added, and the sample was mixed to homogeneity.

E. coli C41(DE3) = assay: pINF replication in E. coli C41(DE3)-pACS: growth (OD600) and relative plasmid copy number; conditions: 0.25 mM triphosphates; absence of pINF
Description: A single clone of freshly transformed E. coli C41(DE3)-pACS was grown overnight in 2×YT medium (3 ml) supplemented with streptomycin (50 μg/ml) and KPi (50 mM). After 100-fold dilution into the same medium (300 ml) and outgrowth at 37° C. to an OD600 of 0.20, IPTG was added to a final concentration of 1 mM to induce the expression of PtNTT2. After 40 min, the cultures were rapidly cooled to 0° C., washed with sterile water (3×150 ml), and resuspended in 10% glycerol (1.5 ml).
An aliquot of electrocompetent C41(DE3)-pACS cells (50 μL) was mixed with pINF (2 μL, 400 ng), and electroporated in a 0.2 cm gap cuvette. […]
The cells were resuspended in fresh 2×YT medium (1.5 ml, 50 μg/ml streptomycin, 100 μg/ml ampicillin, 1 mM IPTG, 50 mM KPi, 0.25 mM dNaMTP, 0.25 mM d5SICSTP) and grown at 37° C. with shaking (250 rpm). At defined time points, OD600 was determined and aliquots (100 μl) were removed and centrifuged (8000 rfu for 5 min, 4° C.). Spent media was analyzed for nucleotide composition by HPLC and pINF was recovered by spin column purification (Zymo Research Corp.). […]
After recovery, the cells were centrifuged (4000 rfu for 5 min, 4° C.), spent media (0.15 ml) was removed and analyzed for nucleotide composition by HPLC. […]

PtNTT2 [2] = assay: [α-32P]-dATP uptake into E. coli C41(DE3) expressing NTT, TLC/phosphorimaging; format: cell-based, Phaeodactylum tricornutum; conditions: for dATP transport into cells by NTT: PtNTT2
Description: as §1
(§2) To analyze the intracellular dephosphorylation of dATP, after induction of an NTT, an uptake reaction was initiated by the addition of dATP (spiked with [α-^32P]-dATP) to a final concentration of 0.25 mM, followed by incubation at 37° C. with shaking for 30 min. A culture was then centrifuged (8,000 rfu for 5 min, RT). Supernatant was analyzed by thin layer chromatography (TLC), while cell pellets were washed 3 times with ice cold KPi (50 mM, 100 μL) to remove excess radioactive substrate, lysed with NaOH (0.2 M, 100 μl) and centrifuged (10,000 rfu for 5 min RT) to pellet the cell debris, before the supernatant (1.5 μl) was analyzed by TLC.
Samples (1 μl) were applied on a 0.5 mm polyethyleneimine cellulose TLC plate and eluted first by sodium formate (0.5 M, pH 3.0) for 30 sec, then by sodium formate (2.5 M, pH 3.0) for 2.5 m, and finally by sodium formate (4.0 M, pH 3.0) for 40 m. Plates were dried using a heat gun and quantified by phosphorimaging and imaging software.
The experiments described herein illustrate the plasmid-based expression of eight different NTTs in E. coli C41(DE3) (Table 9A). The uptake of [α-^32P]-dATP was examined as a surrogate for the unnatural triphosphates (FIG. 5).

TpNTT2 = assay: as above; format: cell-based, Thalassiosira pseudonana
Description: as §1
as §2, with “TLC. […]” for “TLC.”

PamNTT2 = assay: as above; format: cell-based, Protochlamydia amoebophila
Description: as §1
as §2, with “TLC. […]” for “TLC.”

PamNTT5 = assay: as above; format: cell-based, Protochlamydia amoebophila
Description: as §1
as §2, with “TLC. […]” for “TLC.”

[3] = Nucleotide extraction from cells for HPLC analysis: recovery and triphosphate decomposition; set-up: species or system E. coli; conditions: ratio of 3P composition before and after extraction
Description: To minimize the effect of the lysis and triphosphate extraction protocols on the decomposition of nucleoside triphosphate within the cell, the following extraction procedure was discovered that led to an unexpectedly highest recovery with and low extent of decomposition (Table 9). Cells were grown, washed, and then 5 nmol of either dNaMTP or d5SICSTP was added to the pellets, which were then subjected to various types of extractions including boiling water, hot ethanol, cold methanol, freeze and thaw, lysozyme, glass beads, NaOH, trichloroacetic acid (TCA) with Freon, and perchloric acid (PCA) with KOH. The recovery and composition of the control was quantified by HPLC. […] Pellets were resuspended in ice cold KPi (50 mM, 250 μl) before addition of NaOH to decrease dephosphorylation after cell lysis (Method 4).

Cc1ccc2c(=S)n([C@H]3C[C@H](O)[C@@H](CO)O3)ccc2c1 [(d)5SICS]
addition to DNA primer by polymerase (gel band shift) (Polymerase): extension by one base

COc1cc2ccccc2cc1[C@H]1C[C@H](O)[C@@H](CO)O1 [(d)NaM]
addition to DNA primer by polymerase (gel band shift) (Polymerase): extension by one base

O=P(O)(O)O [KPi, potassium phosphate, reference compound]
inhibition of dephosphorylation of unnatural triphosphates (actively growing E. coli; growing bacterial culture): significantly inhibited

Cc1ccc2c(=S)n([C@H]3C[C@H](O)[C@@H](COP(=O)(O)OP(=O)(O)OP(=O)(O)O)O3)ccc2c1 [d5SICSTP]
import into E. coli by PtNTT2 (PtNTT2 [1]): efficiently imported
degradation of triphosphate in the presence of actively growing E. coli (actively growing E. coli): degraded
effect of added triphosphates on E. coli growth / toxicity (E. coli C41(DE3)): only a slight decrease in growth

Nc1ncnc2c1ncn2[C@H]1C[C@H](O)[C@@H](COP(=O)(O)OP(=O)(O)OP(=O)(O)O)O1 [dATP]
[α-32P]-dATP uptake as a function of transporter induction (PtNTT2 [2]; 1 mM IPTG induction, media containing 50 mM KPi): maximal
dATP transport into cells by NTT (PtNTT2 [2]): efficiently transported
dATP transport into cells by NTT (PtNTT2 [2]; listed as [α-^32P]-dATP): significantly more active
dATP transport into cells by NTT (TpNTT2): efficiently transported
dATP uptake by NTT (PamNTT2): measurable uptake
dATP uptake by NTT (PamNTT5): measurable uptake
extracellular stability in the presence of potassium phosphate (KPi) (actively growing E. coli; KPi in growth medium): significantly increased

COc1cc2ccccc2cc1[C@H]1C[C@H](O)[C@@H](COP(=O)(O)OP(=O)(O)OP(=O)(O)O)O1 [dNaMTP]
import into E. coli by PtNTT2 (PtNTT2 [1]): efficiently imported
degradation of triphosphate in the presence of actively growing E. coli (actively growing E. coli): degraded
effect of added triphosphates on E. coli growth / toxicity (E. coli C41(DE3)): only a slight decrease in growth

COc1cc2ccccc2cc1[C@H]1C[C@H](O)[C@@H](CO)O1 [dNaM]
Triphosphate stability, % ([3]; Method 1 TCA with Freon): 92%
Triphosphate stability, % ([3]; Method 2 PCA w/KOH): 98%
Triphosphate stability, % ([3]; Method 3 NaOH w/KOAc): 86%
Triphosphate stability, % ([3]; Method 4 NaOH w/KOAc supplemented w/ KPi (50 mM)): 99%
